Assay results: PubChem BioAssay AID1963964 (Molecular Pharmacology Branch, DTP, NCI, 2024)

Test system: 997726-040-R-J2-PDC tumor spheroids, viability
Experiment: Anticancer human tumor 997726-040-R-J2-PDC patient-derived squamous cell lung carcinoma cell line growth inhibition [PI3K]
Details: spheroids with HUVEC and MSC; for IC50: curve of first compound; for viability, T/C: stronger effect = lower value
Procedure, shortened: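 Viability of mixed-cell spheroids was determined after exposure to pairwise combinations, one partner being inavolisib, alpelisib, duvelisib or copanlisib. Highest tested concentration matched clinical Cmax where known and 10 microM where not, descending in half-log steps.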
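Also: spheroids exposed to compounds for seven days before readout.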

Q: How did the IC50 (second compound 0.0316 µM) turn out when `CC1(C)CCC(Nc2ncc(C(F)(F)F)c(-c3c[nH]c4c(P(C)(C)=O)c(C#N)ccc34)n2)CN1` (configuration not stated) + Cc1nc(NC(=O)N2CCCC2C(N)=O)sc1-c1ccnc(C(C)(C)C(F)(F)F)c1 was run?
A: The IC50 was < 31.6 nM.

Q: What about the IC50 (second compound 0.1 µM) of the same compound?
A: Its IC50 is < 31.6 nM.

Q: And the IC50 (second compound 0.316 µM)?
A: The IC50 was < 31.6 nM.

Q: And the IC50 (second compound 1 µM)?
A: The IC50 was < 31.6 nM.

Q: What about the IC50 (second compound 3.16 µM) of the same compound?
A: Its IC50 is < 31.6 nM.

Q: What about the IC50 (second compound 10 µM) of the same compound?
A: The IC50 was < 31.6 nM.

Q: And the viability, T/C (second compound 0.0316 µM, first compound 0.0316 µM)?
A: Its viability, T/C is 36.8%.

Q: And the viability, T/C (second compound 0.0316 µM, first compound 0.1 µM)?
A: The viability, T/C was 27%.

Q: What about the viability, T/C (second compound 0.0316 µM, first compound 0.316 µM) of the same compound?
A: The viability, T/C was 30.7%.

Q: What about the viability, T/C (second compound 0.0316 µM, first compound 1 µM) of the same compound?
A: The viability, T/C was 29.5%.

Q: And the viability, T/C (second compound 0.0316 µM, first compound 3.16 µM)?
A: Its viability, T/C is 28.8%.

Q: And the viability, T/C (second compound 0.0316 µM, first compound 10 µM)?
A: The viability, T/C was 5.15%.

Q: And the viability, T/C (second compound 0.1 µM, first compound 0.0316 µM)?
A: The viability, T/C was 27.4%.

Q: And the viability, T/C (second compound 0.1 µM, first compound 0.1 µM)?
A: Its viability, T/C is 28.1%.

Q: What about the viability, T/C (second compound 0.1 µM, first compound 0.316 µM) of the same compound?
A: The viability, T/C was 27.4%.

Q: And the viability, T/C (second compound 0.1 µM, first compound 1 µM)?
A: Its viability, T/C is 29.9%.

Q: And the viability, T/C (second compound 0.1 µM, first compound 3.16 µM)?
A: Its viability, T/C is 29.9%.

Q: What about the viability, T/C (second compound 0.1 µM, first compound 10 µM) of the same compound?
A: The viability, T/C was 5.28%.

Q: What about the viability, T/C (second compound 0.316 µM, first compound 0.0316 µM) of the same compound?
A: Its viability, T/C is 23.7%.

Q: What about the viability, T/C (second compound 0.316 µM, first compound 0.1 µM) of the same compound?
A: Its viability, T/C is 21.8%.

Q: And the viability, T/C (second compound 0.316 µM, first compound 0.316 µM)?
A: Its viability, T/C is 21.5%.

Q: What about the viability, T/C (second compound 0.316 µM, first compound 1 µM) of the same compound?
A: Its viability, T/C is 24.9%.

Q: What about the viability, T/C (second compound 0.316 µM, first compound 3.16 µM) of the same compound?
A: The viability, T/C was 21.8%.

Q: What about the viability, T/C (second compound 0.316 µM, first compound 10 µM) of the same compound?
A: The viability, T/C was 2.81%.

Q: What about the viability, T/C (second compound 1 µM, first compound 0.0316 µM) of the same compound?
A: Its viability, T/C is 16.4%.

Q: And the viability, T/C (second compound 1 µM, first compound 0.1 µM)?
A: Its viability, T/C is 13.5%.

Q: And the viability, T/C (second compound 1 µM, first compound 0.316 µM)?
A: Its viability, T/C is 16%.

Q: And the viability, T/C (second compound 1 µM, first compound 1 µM)?
A: The viability, T/C was 17.5%.

Q: What about the viability, T/C (second compound 1 µM, first compound 3.16 µM) of the same compound?
A: The viability, T/C was 18.1%.

Q: And the viability, T/C (second compound 1 µM, first compound 10 µM)?
A: The viability, T/C was 1.51%.

Q: And the viability, T/C (second compound 3.16 µM, first compound 0.0316 µM)?
A: Its viability, T/C is 14.2%.

Q: What about the viability, T/C (second compound 3.16 µM, first compound 0.1 µM) of the same compound?
A: The viability, T/C was 11.1%.

Q: And the viability, T/C (second compound 3.16 µM, first compound 0.316 µM)?
A: Its viability, T/C is 11.9%.

Q: And the viability, T/C (second compound 3.16 µM, first compound 1 µM)?
A: The viability, T/C was 12.9%.

Q: And the viability, T/C (second compound 3.16 µM, first compound 3.16 µM)?
A: Its viability, T/C is 11.5%.

Q: And the viability, T/C (second compound 3.16 µM, first compound 10 µM)?
A: Its viability, T/C is 1.02%.

Q: What about the viability, T/C (second compound 10 µM, first compound 0.0316 µM) of the same compound?
A: Its viability, T/C is 7.35%.

Q: And the viability, T/C (second compound 10 µM, first compound 0.1 µM)?
A: The viability, T/C was 6.65%.

Q: And the viability, T/C (second compound 10 µM, first compound 0.316 µM)?
A: The viability, T/C was 6.01%.

Q: What about the viability, T/C (second compound 10 µM, first compound 1 µM) of the same compound?
A: Its viability, T/C is 7.48%.

Q: And the viability, T/C (second compound 10 µM, first compound 3.16 µM)?
A: The viability, T/C was 6.58%.

Q: And the viability, T/C (second compound 10 µM, first compound 10 µM)?
A: The viability, T/C was 0.41%.
